{"source": "ChEMBL document CHEMBL1133265", "about": "(Bioorg Med Chem Lett, 2000)", "key": {"[1]": {"molecular_target": "Sodium-dependent dopamine transporter (Rattus norvegicus, UniProt P23977)", "sequence (P23977 whole entry)": "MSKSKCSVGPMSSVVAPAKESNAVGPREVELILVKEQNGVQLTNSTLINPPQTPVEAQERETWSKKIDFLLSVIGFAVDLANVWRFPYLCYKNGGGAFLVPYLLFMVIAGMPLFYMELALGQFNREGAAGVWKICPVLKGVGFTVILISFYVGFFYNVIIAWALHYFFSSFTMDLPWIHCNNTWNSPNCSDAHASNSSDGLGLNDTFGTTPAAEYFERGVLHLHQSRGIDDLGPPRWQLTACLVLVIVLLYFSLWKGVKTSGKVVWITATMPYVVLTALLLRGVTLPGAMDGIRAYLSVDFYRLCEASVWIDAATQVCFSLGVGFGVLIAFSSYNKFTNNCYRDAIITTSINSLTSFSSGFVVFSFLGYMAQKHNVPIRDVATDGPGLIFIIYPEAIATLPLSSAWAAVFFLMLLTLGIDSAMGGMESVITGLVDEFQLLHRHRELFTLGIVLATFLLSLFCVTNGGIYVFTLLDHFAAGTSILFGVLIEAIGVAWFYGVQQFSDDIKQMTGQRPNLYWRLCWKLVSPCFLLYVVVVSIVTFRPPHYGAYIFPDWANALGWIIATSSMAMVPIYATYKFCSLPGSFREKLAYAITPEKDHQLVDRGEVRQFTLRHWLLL", "assay": "Displacement of [3H]GBR-12935 from rat forebrain Dopamine transporter"}, "[2]": {"molecular_target": "Sodium-dependent serotonin transporter (Rattus norvegicus, UniProt P31652)", "sequence (P31652 whole entry)": "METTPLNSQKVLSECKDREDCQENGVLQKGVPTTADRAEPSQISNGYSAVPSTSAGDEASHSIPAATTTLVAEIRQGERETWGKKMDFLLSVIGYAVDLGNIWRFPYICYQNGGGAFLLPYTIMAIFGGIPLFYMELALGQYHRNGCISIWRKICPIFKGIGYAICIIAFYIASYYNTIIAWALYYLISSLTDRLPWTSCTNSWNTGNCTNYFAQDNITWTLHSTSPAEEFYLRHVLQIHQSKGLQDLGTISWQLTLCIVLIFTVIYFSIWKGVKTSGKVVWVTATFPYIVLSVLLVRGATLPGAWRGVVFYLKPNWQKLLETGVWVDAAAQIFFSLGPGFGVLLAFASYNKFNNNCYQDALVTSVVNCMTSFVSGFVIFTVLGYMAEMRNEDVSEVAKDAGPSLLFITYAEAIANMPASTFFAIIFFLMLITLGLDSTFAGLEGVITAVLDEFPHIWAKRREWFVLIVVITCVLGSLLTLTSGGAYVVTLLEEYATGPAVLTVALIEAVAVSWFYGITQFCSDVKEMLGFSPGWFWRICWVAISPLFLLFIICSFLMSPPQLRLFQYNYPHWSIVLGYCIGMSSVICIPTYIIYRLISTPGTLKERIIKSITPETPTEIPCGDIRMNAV", "assay": "Affinity for Serotonin transporter by displacing [3H]paroxetine from rat forebrain"}, "[3]": {"molecular_target": "Norepinephrine transporter (Rattus norvegicus, UniProt Q9WTR4)", "sequence (Q9WTR4 whole entry)": "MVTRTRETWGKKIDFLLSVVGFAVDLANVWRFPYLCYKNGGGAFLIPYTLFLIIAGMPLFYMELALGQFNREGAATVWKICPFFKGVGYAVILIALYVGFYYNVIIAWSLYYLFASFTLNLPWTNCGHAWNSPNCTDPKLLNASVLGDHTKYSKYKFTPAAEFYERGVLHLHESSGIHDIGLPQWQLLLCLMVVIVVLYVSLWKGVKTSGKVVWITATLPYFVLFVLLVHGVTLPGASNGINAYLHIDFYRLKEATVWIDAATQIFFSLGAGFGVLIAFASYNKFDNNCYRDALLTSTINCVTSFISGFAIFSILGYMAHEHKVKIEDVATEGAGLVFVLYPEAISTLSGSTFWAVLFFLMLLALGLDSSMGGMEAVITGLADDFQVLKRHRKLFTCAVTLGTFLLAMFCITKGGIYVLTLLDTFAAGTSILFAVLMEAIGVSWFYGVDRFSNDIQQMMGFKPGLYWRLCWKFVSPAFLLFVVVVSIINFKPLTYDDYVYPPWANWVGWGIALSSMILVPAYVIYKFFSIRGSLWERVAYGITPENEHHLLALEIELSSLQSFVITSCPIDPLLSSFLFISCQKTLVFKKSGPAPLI", "assay": "Compound has been evaluated for its affinity towards Norepinephrine transporter by displacing the radio isotope [3H]nisoxetine from rat forebrain"}}}
{"smiles": "COC(=O)C1C(c2ccc(-c3ccccc3[N+](=O)[O-])cc2)CC2CCC1N2C", "note": "(centres undefined)", "values": [{"measurement": "Ki", "setting": "[1]", "result": "> 3000", "unit": "nM"}, {"measurement": "Ki", "setting": "[2]", "result": "> 3000", "unit": "nM"}, {"measurement": "Ki", "setting": "[3]", "result": "> 3000", "unit": "nM"}]}
{"smiles": "COC(=O)C1C(c2ccc(-c3ccc(OC)cc3)cc2)CC2CCC1N2C", "note": "(centres undefined)", "values": [{"measurement": "Ki", "setting": "[3]", "result": 352, "unit": "nM"}]}
{"smiles": "COC(=O)C1C(c2ccc(-c3ccc([N+](=O)[O-])cc3)cc2)CC2CCC1N2C", "note": "(centres undefined)", "values": [{"measurement": "Ki", "setting": "[3]", "result": 370, "unit": "nM"}]}
{"smiles": "COC(=O)C1C(c2ccc(-c3cccc(OC)c3)cc2)CC2CCC1N2C", "note": "(centres undefined)", "values": [{"measurement": "Ki", "setting": "[3]", "result": "> 3000", "unit": "nM"}]}
{"smiles": "COC(=O)C1C(c2ccc(-c3cccc([N+](=O)[O-])c3)cc2)CC2CCC1N2C", "note": "(centres undefined)", "values": [{"measurement": "Ki", "setting": "[3]", "result": 963, "unit": "nM"}]}
{"smiles": "COC(=O)C1C(c2ccc(-c3ccc(C(C)=O)cc3)cc2)CC2CCC1N2C", "note": "(centres undefined)", "values": [{"measurement": "Ki", "setting": "[3]", "result": 754, "unit": "nM"}]}
{"smiles": "COC(=O)[C@@H]1C2CC[C@H](C[C@@H]1c1ccc(I)cc1)N2C", "values": [{"measurement": "Ki", "setting": "[1]", "result": 0.96, "unit": "nM"}, {"measurement": "Ki", "setting": "[2]", "result": 0.46, "unit": "nM"}, {"measurement": "Ki", "setting": "[3]", "result": 2.8, "unit": "nM"}]}
{"smiles": "COC(=O)C1C(c2ccc(-c3ccccc3C(C)=O)cc2)CC2CCC1N2C", "note": "(centres undefined)", "values": [{"measurement": "Ki", "setting": "[3]", "result": "> 20000", "unit": "nM"}]}
{"smiles": "COC(=O)C1C(c2ccc(-c3cccc(C(C)=O)c3)cc2)CC2CCC1N2C", "note": "(centres undefined)", "values": [{"measurement": "Ki", "setting": "[3]", "result": "> 50000", "unit": "nM"}]}
{"smiles": "COC(=O)C1C(c2ccc(-c3ccccc3OC)cc2)CC2CCC1N2C", "note": "(centres undefined)", "values": [{"measurement": "Ki", "setting": "[3]", "result": 10000, "unit": "nM"}]}
